From patent publication US20110269790A1, “NOVEL THIENOPYRIDINES AS PHARMACOLOGICALLY ACTIVE AGENTS” (priority 2009, published 2011)

Tests used:
Wistar rats [1] = assay: Antidiabetic activity by starch loaded model; type: in vivo, rat; settings: test compounds 100 mg/kg, Acarbose 10 mg/kg oral
Description: Experimental Animals—Wistar rats of either sex were used for the present study. Animals selected for use in the study were of uniform age and body weight. A minimum of 40 rats, from which eventually 20 rats were selected. Their body weights were in the range of 150-180 gm. The health status of the animals was ascertained by a veterinary surgeon. […] Animals were acclimatized for at least two weeks prior to start of the study. The animals were provided with pellet diet manufactured by NIN, HYDERABAD, India and drinking water adlibitum.
Compound Preparation The required quantity of the synthetic compounds were weighed and made suspension with gum acacia (2%). The test compounds were administered to all rats by per oral route. Acarbose suspension was also prepared in gum acasia suspension and given by oral route.
Antidiabetic activity by Starch model: The method of Rao et al., 2009;Tiwari et al was employed. Animals were fasted over night (12 hrs). Basal blood glucose levels were estimated for all the animals prior to dosing in test and standard groups. This was designated as “0” min reading. […] After test compounds administration animals in all three groups received Starch aqueous solution (2 gm/kg body weight). Blood glucose levels were monitored at 30, 60, 90 and 120 min after the administration of Starch in all the three groups. The percentage of increase in, blood glucose levels was calculated with respect to the control group at each time point.

mice = assay: Adenosine mediated bronchoconstriction and lung inflammation in an allergic mouse model; type: in vivo; parameters: Total count: unit not given here; settings: BAL fluid cells; 100 mg/kg oral
Protocol: Thienopyridines were proven as potent cytotoxic and anti-inflammatory agents in the previous experimental results. In cytotoxic MTT assay, activity of these molecules may be due to the involvement of adenosine receptors. Further, to find the bronchodilatory activity of these moieties and to find the involvement of adenosine receptors in their action, non-invasive and invasive adenosine mediated bronchoconstriction and lung inflammation in an allergic mouse model was performed.
Male mice, 6-8 weeks of age, free of specific pathogens were obtained from National Institute of Nutrition. The animals were maintained on a ragweed-free diet. All experimental protocols used in this study were under a protocol approved by animal ethical committee. Sensitization was performed according to the modified procedure described by Fan et al, 2002. Mice were sensitized on days 1 and 6 with i.p. injections of ragweed allergen (200 μg/200 μl of water for injection). Non-sensitized control animals received only water for injection with the same volumes. Ten days after sensitization, the mice were placed in plexiglas chamber and challenged with 0.5% ragweed or with 0.9% saline as a control for twenty minutes both in the morning and evening for three days. Then mice were divided into different groups consisting of six animals each. The groups including a control without sensitization; a sensitized group and a standard group along with groups of the test molecules were separated. Twenty-four hours after last challenge with ragweed, the mice were given an oral dose of test molecules and theophylline (100 mg/kg body weight) as acacia suspension. Two hours after administration of the oral dose, the mice were challenged with adenosine solution (24 mg/ml). The variation in respiration was recorded after anaesthetizing them with pentobarbitone sodium (0.1 ml 200 mg/ml ip) using kymograph. Then, mice were sacrificed and trachea was cannulated to collect the bronchoalveolar lavage fluid. This was performed by pumping 1 ml phosphate buffered saline into lungs through tracheal cannula and collecting the sample. Analysis of BAL fluid was performed to get the cellular differentials. The BAL fluid was centrifugated at 1500 rpm for six minutes at room temparature. After removing the supernatant, BAL cells were resuspended in 1 ml of phosphate buffered saline. Total cells were then counted manually in a hemocytometer chamber. A differential count of at least 300 cells was made according to the standard morphologic criteria and results were mentioned in table.

Wistar rats [2] = assay: Carrageenan induced paw edema model; type: in vivo, rat; settings: Rattus norvegicus, po, 3 h
Protocol: Male Albino Wistar rats of 150-180 grams were used for the experiments.
Anti-inflammatory activity of test compounds was evaluated in Wistar rats employing the method of Winter et al (1963) and Diwan et al (1989). Male Wistar rats were used for the study. […] The different test compounds were administered to the animals in the test group at the dose of 100 mg/kg, by oral route. Animals in the standard group received Indomethacin at the dose of 10 mg/kg, by oral route. All test and standard compounds were administered as 1% gum acacia suspension. Rats in the control group received the vehicle solution without drugs. One hour after test drugs administration, rats in all the groups were challenged with 0.1 ml of 1% Carrageenan in the sub plantar region of right hind paw. A zero hour paw volume was measured for all the rats using digital plethysmometer (Ugo Basile, Italy) before the administration of carrageenan for all groups. Paw volumes were again measured 3 hrs after the challenge of Carrageenan. The percent inhibition of paw volume for each rat in treated groups was calculated by comparing with mean paw volume of control group and expressed as mean (±SE) percent inhibition of paw volume for each test. In a preliminary study the compounds that have shown good activity were evaluated for dose response study by using above procedure.

[3] = target: T1, porcine pancreatic α-amylase (Sus scrofa, UniProt P00690); assay: α-Amylase inhibition assay; type: biochemical; settings: 10 mg per ml; a/b marks the respective control (Control-1 2.147, Control-2 3.429)
T1 construct: α-amylase [EC 3.2.1.1) Type VI B: from porcine pancreas]; purchased Sigma Chemical Co., St Louis, Mo., USA; host or cells: porcine pancreas (natural source)
T1 sequence (P00690 16-511): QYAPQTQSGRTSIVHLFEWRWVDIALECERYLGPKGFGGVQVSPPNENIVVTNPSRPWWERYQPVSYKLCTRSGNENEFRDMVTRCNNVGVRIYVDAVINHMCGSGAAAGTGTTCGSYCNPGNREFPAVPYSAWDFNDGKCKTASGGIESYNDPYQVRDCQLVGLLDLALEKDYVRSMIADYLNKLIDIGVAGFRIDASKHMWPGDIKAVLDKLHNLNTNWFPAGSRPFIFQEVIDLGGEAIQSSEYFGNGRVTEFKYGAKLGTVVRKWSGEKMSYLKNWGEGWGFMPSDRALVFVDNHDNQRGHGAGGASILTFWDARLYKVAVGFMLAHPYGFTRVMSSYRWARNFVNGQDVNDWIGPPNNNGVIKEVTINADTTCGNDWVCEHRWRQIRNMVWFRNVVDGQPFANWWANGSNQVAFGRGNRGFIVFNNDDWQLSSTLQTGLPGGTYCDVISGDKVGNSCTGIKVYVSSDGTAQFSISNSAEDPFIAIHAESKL
Description: (§1) Chemicals: α-Glucosidase [(EC 3.2.1.20) Type I: from bakers yeast], rat intestinal acetone powder (as a source of crude intestinal α-glucosidase), α-amylase [EC 3.2.1.1) Type VI B: from porcine pancreas], p-nitrophenyl α-D-glucopyranoside, 3,5-dinitro salicylic acid, soluble potato starch and 1-deoxyrojirimycine, were purchased from Sigma Chemical Co., St Louis, Mo., USA. Other chemicals of analytical grade were procured from indigenous manufacturers.
a-Amylase Inhibition Assay: The assay method was adopted from Ali et al. (2006) and modified accordingly to suite microplate reading. In brief, 40 μL of test samples (10 mg/mL DMSO) were reconstituted in 160 μL of 20 mM phosphate buffer (pH 6.9) containing 6.7 mM sodium chloride in 2 mL Eppendorf tubes and incubated with 200 μL of porcine pancreatic α-amylase) (4 U/mL prepared in ice cold distilled water) for 5 min. The reaction was started by the addition of 400-μL soluble potato starch solution (0.5% w/v in 20 mM phosphate buffer, pH 6.9). Exactly 3 min after incubation, 400 μL DNS color reagent (1.0 g of 3,5-dinitrosalicylic acid, 30 g of sodium potassium tartrate and 20 mL of 2 N NaOH to a final volume of 100 mL in distilled water) was added. Closed tubes were placed in a water bath (85-90° C.) for 10 min to develop color and cooled thereafter. 50 μL of reaction mixtures was diluted with 175 μL of distilled water in a 96-well microplate. α-Amylase activity was determined by measuring the absorbance of the mixture at 540 nm spectrophotometrically as above. Individual blanks were prepared to correct for the background absorbance due to test samples. In this case DNS solution was added in tubes before addition of substrate. The percentage inhibition of enzyme activity was calculated as above. All the tests were run in duplicate in this assay.

yeast α-glucosidase = target: T2, yeast α-glucosidase (Saccharomyces cerevisiae, UniProt P53341); assay: In-vitro yeast α-glucosidase inhibition assay; type: biochemical, bakers yeast
T2 construct: α-Glucosidase [(EC 3.2.1.20) Type I: from bakers yeast]
T2 sequence (P53341 whole entry): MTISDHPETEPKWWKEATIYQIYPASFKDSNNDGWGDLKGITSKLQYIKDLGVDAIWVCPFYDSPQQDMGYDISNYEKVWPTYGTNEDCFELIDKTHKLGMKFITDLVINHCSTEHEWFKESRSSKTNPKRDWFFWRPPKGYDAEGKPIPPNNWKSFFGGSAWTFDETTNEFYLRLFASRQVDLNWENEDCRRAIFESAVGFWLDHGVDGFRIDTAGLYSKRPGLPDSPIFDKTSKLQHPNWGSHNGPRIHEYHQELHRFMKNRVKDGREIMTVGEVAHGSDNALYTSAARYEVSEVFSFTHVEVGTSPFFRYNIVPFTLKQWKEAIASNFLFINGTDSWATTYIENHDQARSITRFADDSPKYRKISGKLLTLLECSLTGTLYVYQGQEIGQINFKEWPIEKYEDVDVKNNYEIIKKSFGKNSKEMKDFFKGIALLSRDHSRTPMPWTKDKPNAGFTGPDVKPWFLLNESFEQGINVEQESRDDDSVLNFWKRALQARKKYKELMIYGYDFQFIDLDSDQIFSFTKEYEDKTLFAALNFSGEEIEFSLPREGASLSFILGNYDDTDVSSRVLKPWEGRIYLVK
Description: as §1
(§2) In-vitro a-Glucosidase Inhibition Assay: Yeast and intestinal a-glucosidase inhibitory activities were determined as per reported methods (Babu et al., 2004; Mc Dougall et al., 2005). Rat intestinal acetone powder in normal saline (100% w/v) was sonicated properly and the supernatant was used as a source of crude intestinal a-glucosidase after centrifugation. In brief, 20 μl, of test samples (100 mg/ml DMSO solution) were reconstituted in 100 μl of 100 mM-Phosphate buffer (pH 6.8) in a 96-well microplate and incubated with 50 μl yeast a-glucosidase (0.76 μ/ml in same buffer) or crude intestinal a-glucosidase for 5 min before 50-μl substrate (5 mM, […] prepared in same buffer) was added. Release of p-nitrophenyol was measured at 405 nm spectrophotometrically (Spectra Mas Plus 384, Molecular Device corporation, Sunnyvale, Calif., USA) 5 min after incubation with substrate, individual blank for test samples were prepared to correct background absorbance where the substrate was replaced with 50 μl of buffer. The control sample contained 20 μl DMSO in place of test samples. The percentage of enzyme inhibition was calculated as (A−B/A)×100 where A is represents the absorbance of the control without test samples, and B represents the absorbance in the presence of test samples. […] The IC50 values were calculated by applying logarithmic regression analysis from the mean inhibitory values.

[4] = tested on: crude intestinal α-glucosidase; assay: In-vitro mammalian (rat intestinal) α-glucosidase inhibition assay; type: biochemical; settings: highest concentration 5 mg/ml
Description: as §1, §2

Row | SMILES | % Increase in glucose, 30 min (Wistar rats [1]; 30 min after starch) [%] | Blood glucose level, 30 min (Wistar rats [1]; 30 min after starch, in mg/dL (unit assumed)) | % Increase in glucose, 60 min (Wistar rats [1]; 60 min after starch) [%] | Blood glucose level, 60 min (Wistar rats [1]; 60 min after starch, in mg/dL (unit assumed)) | % Increase in glucose, 90 min (Wistar rats [1]; 90 min after starch) [%] | Blood glucose level, 90 min (Wistar rats [1]; 90 min after starch, in mg/dL (unit assumed)) | % Increase in glucose, 120 min (Wistar rats [1]; 120 min after starch) [%] | Blood glucose level, 120 min (Wistar rats [1]; 120 min after starch, in mg/dL (unit assumed)) | Blood glucose level, 0 min (Wistar rats [1]; basal, prior to dosing, starch 2 gm/kg, in mg/dL (unit assumed)) | Differential count (%) Eosinophils (mice) [%] | Differential count (%) Lymphocytes (mice) [%] | Differential count (%) Monocytes (mice) [%] | Total count (mice) | change in vivo at 100 mg/kg (Wistar rats [2]; read-out: % Increase in Paw Volume) [%] | inhibition in vivo at 100 mg/kg (Wistar rats [2]; read-out: % Inhibition (paw volume)) [%] | Maltose released [3] [mg/mL] | Yeast α-glucosidase enzyme inhibitory activity (in words) (yeast α-glucosidase) | Mammalian α Glucosidase Inhibition (Mean ± S.E) [4] [%]
1 | C[C@H]1O[C@H](O[C@H]2[C@H](O)[C@@H](O)[C@@H](O[C@H]3[C@H](O)[C@@H](O)C(O)O[C@@H]3CO)O[C@@H]2CO)[C@H](O)[C@@H](O)[C@@H]1N[C@H]1C=C(CO)[C@@H](O)[C@H](O)[C@H]1O (stereo partly drawn) [Acarbose, reference compound] | 23.55 | 103.17 | 32.03 | 110.17 | 31.78 | 109.83 | 30.27 | 108.62 | 83.50 |  |  |  |  |  |  |  |  | 
2 | Nc1c2c(nc3sc4c(c13)CCCCC4)CCCC2 [BN-19, 2,3,4,7,8,9,10,11-Octahydro-1H-cyclohepta[4,5]thieno[2,3-b]quinolin-12-Amine] |  |  |  |  |  |  |  |  |  | 10 | 80 | 10 | 11.5 | 90.4 ± 11.4 | 0 | 3.282 | moderate inhibitory activity | 0.0 ± 0.0
